In general, CC50 refers to the concentration at which the toxic effect on the cells reaches its halfway point. The term inhibition denotes the change of the read-out against control, counted positive when it falls.

A value given as a limit tells only on which side of the number the result lay.

Data set [1] can be described thus: Test B: Cytotoxicity Assay (uninfected MT-4 cells). The conditions noted are these: human, same protocol as Test A, read-out: MT4-CC50. Format: cell-based. Here is the method: (§1) For the antiviral assay, 40 μL of 1× test concentration of 3-fold serially diluted compound in culture medium with 10% FBS was added to each well of a 384-well plate (10 concentrations) in quadruplicate. MT-4 cells were next mixed with HIV-IIIb at an m.o.i of 0.003 for 1 hour, after which time 35 μL of virus/cell mixture (2000 cells) was immediately added to each well containing 40 μL of diluted compound. The plates were then incubated at 37° C. for 5 days. After 5 days of incubation, 25 μl of 2× concentrated CellTiter-Glo™ Reagent (catalog #G7571, Promega Biosciences, Inc., Madison, Wis.) was added to each well containing MT-4 cells. Cell lysis was carried out by incubating at room temperature for 10 min and then chemiluminescence was read. […] Test B: Cytotoxicity Assay Compound cytotoxicity and the corresponding CC50 values were determined using the same protocol as described in the antiviral assay (Test A) except that uninfected cells were used.

Data set [2] has as its system HIV-IIIb. In words: Test A: Antiviral Assay in MT4 Cells. Format: cell-based, HIV-1. The following applies: Human immunodeficiency virus 1, MT4, 120 h, read-out: % Inh @ 2 uM (percent inhibition of virus-induced cell killing); 2 uM test compound; MT-4 cells infected with HIV-IIIb, 5 days, CellTiter-Glo. How it is done: as §1, with “Test A: Antiviral Assay in MT4 Cells For” for “For”, “Accordingly,” for “Test B: Cytotoxicity Assay Compound cytotoxicity and”, “compounds disclosed herein may be useful for treating an HIV virus infection, treating AIDS or for delaying” for “corresponding CC50 values were determined using”, “onset of AIDS or ARC symptoms.” for “same protocol as described in the antiviral assay (Test A) except that uninfected cells were used.”
On the technique in general: ATP-based viability assays read luminescence as a measure of living cells.

Turning to `CN(C(=O)[C@@H]1Cc2cc(F)cc(c2)CCCc2[nH]c3ccccc3c2CC(=O)N1)c1ccc(Cl)cc1` [Example 24, (4S)—N-(4-chlorophenyl)-8-fluoro-N-methyl-2-oxo-2,3,4,5,11,12,13,14-octahydro-1H-6,10-(metheno)azacyclopentadecino[5,4-b]indole-4-carboxamide], the CC50 at 5 days in data set [1] is 47.1 µM. Moreover, in data set [2], the inhibition at 2 µM was 100%.
The corresponding values for `COc1ccc(N(C)C(=O)[C@@H]2Cc3cccc(c3)C/C=C\c3[nH]c4ccc(F)cc4c3CC(=O)N2)cc1` [Example 14] are 44.3 µM and 95.6%.
`COc1ccc2[nH]c3c(c2n1)CC(=O)N[C@H](C(=O)N(C)c1ccc(Cl)cc1)Cc1cccc(c1)CC3` [Example 28, (14S)—N-(4-chlorophenyl)-2-methoxy-N-methyl-16-oxo-5,6,7,13,14,15,16,17-octahydro-12,8-(metheno)pyrido[2′,3′:4,5]pyrrolo[3,2-d]azacyclotetradecine-14-carboxamide]: the cytotoxic concentration (CC50) at 5 days in data set [1] was 18.3 µM. Also, the inhibition at 2 µM in data set [2] came to 63.9%.
On to `COc1ccc(N(C)C(=O)[C@@H]2Cc3cccc(c3)/C=C\c3[nH]c4ccccc4c3CC(=O)N2)cc1` [Example 17, (4S,11Z)—N-(4-methoxyphenyl)-N-methyl-2-oxo-1,2,3,4,5,13-hexahydro-6,10-(metheno)azacyclotetradecino[5,4-b]indole-4-carboxamide], for which the CC50 at 5 days in data set [1] is above 53 µM. Besides, in data set [2], the inhibition at 2 µM is 4.7%.
The corresponding values for `COc1ccc(N(C)C(=O)[C@@H]2Cc3cccc(c3)CCS(=O)(=O)Cc3[nH]c4ccccc4c3CC(=O)N2)cc1` [Example 8, (11S)—N-(4-methoxyphenyl)-N-methyl-13-oxo-3,4,10,11,12,13,14,19-octahydro-1H-9,5-(metheno)[1,7]thiazacyclohexadecino[3,4-b]indole-11-carboxamide 2,2-dioxide] are above 53 µM and 0.6%.
In the same order, the values of `COc1ccc(N(C)C(=O)[C@@H]2Cc3cccc(c3)CS(=O)(=O)c3[nH]c4ccccc4c3CC(=O)N2)cc1` [Example 21, (9S)—N-(4-methoxyphenyl)-N-methyl-11-oxo-8,9,10,11,12,17-hexahydro-7,3-(metheno)[1,6]thiazacyclotetradecino[2,3-b]indole-9(2H)-carboxamide 1,1-dioxide] are above 53 µM and 11.8%.
The corresponding values for `CN(C(=O)[C@@H]1Cc2cccc(c2)CCCc2[nH]c3ccc(=O)[nH]c3c2CC(=O)N1)c1ccc(Cl)cc1` [Example 30, (15S)—N-(4-chlorophenyl)-N-methyl-2,17-dioxo-1,5,6,7,8,14,15,16,17,18-decahydro-2H-13,9-(metheno)pyrido[2′,3′:4,5]pyrrolo[3,2-d]azacyclopentadecine-15-carboxamide] are 24.4 µM and 0%.
In the case of `COc1ccc(N(C)C(=O)[C@@H]2Cc3cccc(c3)CC=Cc3[nH]c4ccccc4c3CC(=O)N2)cc1` (stereo in doubt) [Example 11, (4S,12Z)—N-(4-methoxyphenyl)-N-methyl-2-oxo-2,3,4,5,11,14-hexahydro-1H-6,10-(metheno)azacyclopentadecino[5,4-b]indole-4-carboxamide], the CC50 at 5 days in data set [1] was 23.9 µM. Besides, the inhibition at 2 µM in data set [2] was determined as 102%.
Consider `COc1ccc(N(C)C(=O)[C@@H]2Cc3cc(F)cc(c3)/C=C\Cc3[nH]c4ccccc4c3CC(=O)N2)cc1` [Example 26, (4S,11Z)-8-fluoro-N-(4-methoxyphenyl)-N-methyl-2-oxo-2,3,4,5,13,14-hexahydro-1H-6,10-(metheno)azacyclopentadecino[5,4-b]indole-4-carboxamide], for which the cytotoxic concentration (CC50) at 5 days in data set [1] is 34.8 µM. Besides, in data set [2], the inhibition at 2 µM was 79.9%.
The corresponding values for `COc1ccc(N(C)C(=O)[C@@H]2Cc3cccc(c3)CCSCc3[nH]c4ccc(F)cc4c3CC(=O)N2)cc1` [Example 7] are above 53 µM and 26.3%.
`COc1ccc(N(C)C(=O)[C@@H]2Cc3cccc(c3)CCS(=O)(=O)Cc3[nH]c4ccc(F)cc4c3CC(=O)N2)cc1` [Example 10]: the CC50 at 5 days in data set [1] was above 53 µM. Besides, in data set [2], the inhibition at 2 µM turned out to be 1.8%.
As for `COc1ccc(N(C)C(=O)[C@@H]2Cc3cccc(c3)CS(=O)(=O)Cc3[nH]c4ccccc4c3CC(=O)N2)cc1` [Example 16, (10S)—N-(4-methoxyphenyl)-N-methyl-12-oxo-9,10,11,12,13,18-hexahydro-1H-8,4-(metheno)[1,7]thiazacyclopentadecino[3,4-b]indole-10(3H)-carboxamide 2,2-dioxide], in data set [1], the CC50 at 5 days was above 53 µM. Besides, the inhibition at 2 µM in data set [2] stood at 67.8%.
The corresponding values for `CN(C(=O)[C@@H]1Cc2cccc(c2)CCc2[nH]c3ccc(=O)[nH]c3c2CC(=O)N1)c1ccc(Cl)cc1` [Example 29, (14S)—N-(4-chlorophenyl)-N-methyl-2,16-dioxo-1,2,5,6,7,13,14,15,16,17-decahydro-12,8-(metheno)pyrido[2′,3′:4,5]pyrrolo[3,2-d]azacyclotetradecine-14-carboxamide] are above 53 µM and 87.6%.
In the case of `COc1ccc(N(C)C(=O)[C@@H]2Cc3cccc(c3)/C=C/Cc3[nH]c4ccccc4c3CC(=O)N2)cc1` [Example 22, (4S,11E)-N-(4-methoxyphenyl)-N-methyl-2-oxo-2,3,4,5,13,14-hexahydro-1H-6,10-(metheno)azacyclopentadecino[5,4-b]indole-4-carboxamide], the cytotoxic concentration (CC50) at 5 days in data set [1] was above 52.6 µM. For the same compound, the inhibition at 2 µM in data set [2] worked out at 64.5%.
The corresponding values for `COc1ccc(N(C)C(=O)[C@@H]2Cc3cc(F)cc(c3)CCCc3[nH]c4ccccc4c3CC(=O)N2)cc1` [Example 23K, (4S)-8-fluoro-N-(4-methoxyphenyl)-N-methyl-2-oxo-2,3,4,5,11,12,13,14-octahydro-1H-6,10-(metheno)azacyclopentadecino[5,4-b]indole-4-carboxamide] are above 50.3 µM and 94%.
As for `COc1ccc(N(C)C(=O)[C@@H]2Cc3cccc(c3)CCCc3[nH]c4ccc(O)cc4c3CC(=O)N2)cc1` [Example 2], in data set [1], the 50% cytotoxic concentration (CC50) at 5 days is above 46.4 µM. Besides, the inhibition at 2 µM in data set [2] was 102%.
`COc1ccc(N(C)C(=O)[C@@H]2Cc3cccc(c3)CCc3[nH]c4ccccc4c3CC(=O)N2)cc1` [Example 3]: the 50% cytotoxic concentration (CC50) at 5 days in data set [1] is above 53 µM. In data set [2], the inhibition at 2 µM was 99.2%.
Consider `COc1ccc(N(C)C(=O)[C@@H]2Cc3cccc(c3)C/C=C\c3[nH]c4ccccc4c3CC(=O)N2)cc1` [Example 13], for which the CC50 at 5 days in data set [1] is above 53 µM. Also, the inhibition at 2 µM in data set [2] stood at 99%.
As for `COc1ccc(N(C)C(=O)[C@@H]2Cc3cccc(c3)S(=O)(=O)Cc3[nH]c4ccccc4c3CC(=O)N2)cc1` [Example 19, (9S)—N-(4-methoxyphenyl)-N-methyl-11-oxo-8,9,10,11,12,17-hexahydro-1H-7,3-(metheno)[1,7]thiazacyclotetradecino[3,4-b]indole-9-carboxamide 2,2-dioxide], the CC50 at 5 days in data set [1] was above 53 µM. Also, in data set [2], the inhibition at 2 µM is 80.3%.
Regarding `CN(C(=O)N1Cc2cc(F)cc(c2)CCCc2[nH]c3ccccc3c2CC(=O)N1)c1ccc(Cl)cc1` [Example 31, N-(4-chlorophenyl)-8-fluoro-N-methyl-2-oxo-2,3,11,12,13,14-hexahydro-1H-6,10-(metheno)[1,2]diazacyclopentadecino[6,5-b]indole-4(5H)-carboxamide], the cytotoxic concentration (CC50) at 5 days in data set [1] turned out to be 21.7 µM. Also, the inhibition at 2 µM in data set [2] came out at 2.4%.
With `CN(Cc1ccccc1)C(=O)[C@@H]1Cc2cc(F)cc(c2)CCCc2[nH]c3ccccc3c2CC(=O)N1` [Example 25, (4S)—N-benzyl-8-fluoro-N-methyl-2-oxo-2,3,4,5,11,12,13,14-octahydro-1H-6,10-(metheno)azacyclopentadecino[5,4-b]indole-4-carboxamide], the CC50 at 5 days in data set [1] amounted to 52.3 µM. Besides, the inhibition at 2 µM in data set [2] was 84.9%.
Take `COc1ccc(N(C)C(=O)[C@@H]2Cc3cccc(c3)C/C=C/c3[nH]c4ccc(F)cc4c3CC(=O)N2)cc1` [Example 12]: in data set [1], the CC50 at 5 days worked out at 31.8 µM. In addition, in data set [2], the inhibition at 2 µM was 85.5%.
With `COc1ccc(N(C)C(=O)[C@@H]2Cc3cccc(c3)CCSCc3[nH]c4ccc(O)cc4c3CC(=O)N2)cc1` [Example 6], the 50% cytotoxic concentration (CC50) at 5 days in data set [1] was 49.2 µM. Further, the inhibition at 2 µM in data set [2] was 94.3%.
In the same order, the values of `COc1ccc(N(C)C(=O)[C@@H]2Cc3cccc(c3)CCCCc3[nH]c4ccccc4c3CC(=O)N2)cc1` [Example 4] are above 48.7 µM and 79.6%.

These data come from US9012441B2, “Therapeutic compounds” (Gilead Sciences, Inc., priority 2013, dated 2015).
